Test results published in US7211278B2, “Treating method for suppressing hair growth” (Kao Corporation, priority 1999, dated 2007).
Peptide text beside a SMILES is read from it.

Key:
C3H mice = test: Hair growth test (2) using mice; assay type: in vivo
Experimental: (1) Preparation of a Test Sample
Each of Compounds 1 to 3 and 7 was dissolved in a 50% ethanol solution, whereby a 1 mM solution was prepared.
Papain powder (produced by CALBIOCHEM-NOVABIOCHEM CORPORATION) was dissolved in purified water to prepare a 2% aqueous solution, followed by the addition of an equal amount of ethanol to prepare a 1% ethanol solution.
Trypsin powder (produced by Sigma Aldrich Corporation) was dissolved in Hanks' Balanced Salt Solution (produced by Gibco BRL) having 1 mM EDTA-4Na dissolved therein, followed by the addition of an equal amount of ethanol to prepare a 1% ethanol solution.
Chymotrypsin powder (produced by Sigma Aldrich Corporation) was treated in a manner similar to that employed for trypsin, whereby a 1% ethanol solution was prepared.
The back of 6-week-old C3H mice (each group consisting of 5 mice) was, shaved by 2×4 cm^2 by electric hair clippers or an electric shaver so as not to injure its skin. The sample was applied in an amount of 100 μL/once to the shaved portion twice a day for 4 weeks. To a control group, only a solvent was applied. Three weeks after depilation, the picture of the shaved portion was taken at a fixed magnification in order to observe the regrowth hair and the area of the hair regrowth (area of regrowth hair/shaved area) was compared with that of the control group by using an image analyzer.

[1] = biological target: T1, neutral endopeptidase of cultivated human fibroblast (Homo sapiens, UniProt P08473); test: Inhibition test on neutral endopeptidase activity of cultivated human fibroblast; assay type: biochemical; settings: enzyme solution from human fibroblast, substrate glutaryl-Ala-Ala-Phe-4-methoxy-2-naphthylamine
T1 construct: followed by ultrasonic pulverization, whereby an enzyme solution was obtained; host or cells: normal human fibroblasts, Triton X-100 lysate after sonication
T1 sequence (P08473 whole entry): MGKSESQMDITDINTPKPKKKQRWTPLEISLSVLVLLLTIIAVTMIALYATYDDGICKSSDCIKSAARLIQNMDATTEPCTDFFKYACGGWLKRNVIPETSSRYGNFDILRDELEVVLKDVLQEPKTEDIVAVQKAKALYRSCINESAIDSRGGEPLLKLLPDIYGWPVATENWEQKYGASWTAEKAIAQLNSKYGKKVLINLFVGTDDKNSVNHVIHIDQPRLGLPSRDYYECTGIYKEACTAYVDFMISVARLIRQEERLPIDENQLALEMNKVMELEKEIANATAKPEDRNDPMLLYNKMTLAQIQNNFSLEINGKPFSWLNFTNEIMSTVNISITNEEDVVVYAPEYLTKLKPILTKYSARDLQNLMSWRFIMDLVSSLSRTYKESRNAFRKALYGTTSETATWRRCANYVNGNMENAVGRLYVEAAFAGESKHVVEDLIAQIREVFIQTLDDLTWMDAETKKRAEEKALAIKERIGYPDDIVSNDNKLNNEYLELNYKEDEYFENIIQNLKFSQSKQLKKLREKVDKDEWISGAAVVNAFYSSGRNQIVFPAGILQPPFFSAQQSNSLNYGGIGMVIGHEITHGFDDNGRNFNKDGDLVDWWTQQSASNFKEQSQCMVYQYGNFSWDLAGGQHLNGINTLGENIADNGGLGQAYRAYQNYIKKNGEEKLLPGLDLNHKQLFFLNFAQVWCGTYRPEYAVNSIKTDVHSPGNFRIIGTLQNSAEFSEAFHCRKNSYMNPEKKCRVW
Text: Test 1 Inhibition Test on Neutral Endopeptidase Activity of Cultivated Human Fibroblast
Normal human fibroblast commercially available from Dainippon Pharmaceutical Co., Ltd. was subcultured on a DME medium containing 10% bovine fatal serum and provided for the present test. The cells peeled by a rubber-policeman from a Petri dish were floated in a phosphate-buffered physiological saline, collected by a low-velocity centrifuge, and washed three times with the same physiological saline. The cells were floated in a 0.1% Triton X-100/0.2M tris-HCl buffer (pH 8.0), followed by ultrasonic pulverization, whereby an enzyme solution was obtained.
The enzyme activity was measured as follows: To 100 μL of an MES buffer (100 mM, pH 6.5) added with sodium chloride (300 mM), were added 2 μL of the enzyme solution, 1 μL of a solution of the invention compound and, as a substrate for the measurement of enzyme activity, 1 μL of 20 mM glutalyl-Ala-Ala-Phe-4-methoxy-2-naphthylamine, followed by reaction at 37° C. for 1 hour. Phosphoramldon was added to the reaction mixture to give its final concentration of 0.4 μM and then, the reaction was terminated. Aminopeptidase M having a final concentration of 20 mU was added to the reaction mixture and the resulting mixture were reacted at 37° C. for 15 minutes. The amount of the resulting 4-methoxy-2-naphthylamine was determined by measuring the fluorescent strength at excited wavelength of 340 nm and fluorescent wavelength of 425 nm by a fluorospectrophotometer and % inhibition of the compound against enzyme activity was determined.

[2] = compound 1 mM alone (Solvent column), 100 μL twice a day on shaved back
[3] = compound 1 mM combined with Papain 1%, 100 μL twice a day
[4] = proteolytic enzyme 1% alone (Solvent), 100 μL twice a day

O=C(O)CCNC(=O)C(CS)Cc1ccccc1 (centres unmarked) [Compound 7]
Hair growth inhibition 3 weeks after depilation (C3H mice; [2]): 59.7 | Hair growth inhibition 3 weeks after depilation (C3H mice; [3]): 77.9

Phe-Leu
% inhibition ([1]; concentration 1 mM): 72.9%

CCOC(=O)CNC(=O)CC(=O)OCC [Compound 8]
inhibition at 1000 µM ([1]; concentration 1 mM): 23.8 ± 2.7%

CC(C)CC(NP(=O)(O)CCc1ccccc1)C(=O)NC(Cc1c[nH]c2ccccc12)C(=O)O (centres unmarked) [Compound 2]
Hair growth inhibition 3 weeks after depilation (C3H mice; [2]): 59.1 | Hair growth inhibition 3 weeks after depilation (C3H mice; [3]): 80.3

Phe-Asp
% inhibition ([1]; concentration 1 mM): 85.4%

Chymotrypsin
Hair growth inhibition 3 weeks after depilation (C3H mice; [4]): 20.1

Phe-β-Ala
% inhibition ([1]; concentration 0.1 mM): 92.6%

CCOC(=O)CNC(=O)C(Cc1ccccc1)C(=O)OCC (centres unmarked) [Compound 9]
inhibition at 100 µM ([1]; concentration 0.1 mM): 74.5 ± 9.3%

CCOC(=O)CNC(=O)C(Cc1ccc(-c2ccccc2)cc1)C(=O)OCC (centres unmarked) [Compound 11]
inhibition at 100 µM ([1]; concentration 0.1 mM): 85.7 ± 2.2%

Phe-Phe
% inhibition ([1]; concentration 1 mM): 85.7%

O=C(O)CCNC(=O)C(Cc1ccccc1)C(=O)O (centres unmarked) [Compound 12]
inhibition at 100 µM ([1]; concentration 0.1 mM): 69.5 ± 4.3%

Trypsin
Hair growth inhibition 3 weeks after depilation (C3H mice; [4]): 25.6

COC(=O)[C@H](Cc1ccccc1)NC(=O)[C@@H](N)CC(=O)O [Aspartame, Asp-Phe-OMe (aspartame)] (H-Asp-Phe-OMe)
inhibition at 1000 µM ([1]; concentration 1 mM): 30.2%

Phe-Gly
% inhibition ([1]; concentration 1 mM): 49.4%

Asp-Phe
% inhibition ([1]; concentration 1 mM): 45.7%

O=C(O)CNC(=O)C(Cc1ccccc1)C(=O)O (centres unmarked) [Compound 10]
inhibition at 100 µM ([1]; concentration 0.1 mM): 91.2 ± 3.7%

O=C(O)CC(=O)N[C@@H](Cc1ccccc1)C(=O)O [Compound 13]
inhibition at 1000 µM ([1]; concentration 1 mM): 49.3 ± 1.2%

B1: Papain: proteolytic enzyme, papain powder (CALBIOCHEM-NOVABIOCHEM), 1% ethanol solution (protein, UniProt P00784 134-345, looked up)
Papain: IPEYVDWRQKGAVTPVKNQGSCGSCWAFSAVVTIEGIIKIRTGNLNEYSEQELLDCDRRSYGCNGGYPWSALQLVAQYGIHYRNTYPYEGVQRYCRSREKGPYAAKTDGVRQVQPYNEGALLYSIANQPVSVVLEAAGKDFQLYRGGIFVGPCGNKVDHAVAAVGYGPNYILIKNSWGTGWGENGYIRIKRGTGNSYGVCGLYTSSFYPVKN
Hair growth inhibition 3 weeks after depilation (C3H mice; [4]): 17.3
